Source: ChEMBL document CHEMBL1201862, “PubChem BioAssay data set” (2004)
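Assay format: 96-well plates, 48-hour exposure. Abbreviation: GI50, concentration required for 50% inhibition of growth.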 Active and inactive are the calls of the source. No stated cut-off is given here; in the data, active = GI50 up to about 1.1 µM and inactive = higher.

What was measured:
Assay in all cases: NCI anticancer screen, dose series, 48 h
KM12 = tested on: KM12
OVCAR-3 = tested on: OVCAR-3
NCI/ADR-RES = tested on: NCI/ADR-RES
A549 = tested on: A549
DU-145 = tested on: DU-145
RPMI-8226 = tested on: RPMI-8226
NCI-H226 = tested on: NCI-H226
T47D = tested on: T47D
LOX IMVI = tested on: LOX IMVI
CCRF-CEM = tested on: CCRF-CEM
786-0 = tested on: 786-0
SR = tested on: SR
OVCAR-8 = tested on: OVCAR-8
MDA-N = tested on: MDA-N
MDA-MB-231 = tested on: MDA-MB-231
MOLT-4 = tested on: MOLT-4
EKVX = tested on: EKVX
SN12C = tested on: SN12C
TK-10 = tested on: TK-10
Hs-578T = tested on: Hs-578T
PC-3 = tested on: PC-3
SW-620 = tested on: SW-620
NCI-H23 = tested on: NCI-H23
SNB-75 = tested on: SNB-75
HCT-15 = tested on: HCT-15
UACC-257 = tested on: UACC-257
NCI-H522 = tested on: NCI-H522
SK-MEL-2 = tested on: SK-MEL-2
SK-MEL-5 = tested on: SK-MEL-5
SF-295 = tested on: SF-295
CAKI-1 = tested on: CAKI-1
SNB-19 = tested on: SNB-19
OVCAR-5 = tested on: OVCAR-5
HOP-92 = tested on: HOP-92
RXF 393 = tested on: RXF 393
M14 = tested on: M14
UO-31 = tested on: UO-31
COLO 205 = tested on: COLO 205
U-251 = tested on: U-251
HCT-116 = tested on: HCT-116
MCF7 = tested on: MCF7
SF-268 = tested on: SF-268
SK-OV-3 = tested on: SK-OV-3
ACHN = tested on: ACHN
MDA-MB-435 = tested on: MDA-MB-435
NCI-H460 = tested on: NCI-H460
OVCAR-4 = tested on: OVCAR-4
BT-549 = tested on: BT-549
SF-539 = tested on: SF-539
UACC-62 = tested on: UACC-62
HL-60 = tested on: HL-60
IGROV-1 = tested on: IGROV-1
HT-29 = tested on: HT-29
HOP-62 = tested on: HOP-62
HCC 2998 = tested on: HCC 2998
Malme-3M = tested on: Malme-3M
SK-MEL-28 = tested on: SK-MEL-28

For `O=C(O)CNC(=O)c1ccc2cc(C(=O)N3CC(CCl)c4ccc([N+](=O)[O-])cc43)[nH]c2c1` (stereo not drawn), the GI50 (KM12) was > 100 µM (inactive), the GI50 (OVCAR-3) was > 100 µM (inactive) and the GI50 (NCI/ADR-RES) was > 100 µM (inactive). The GI50 (A549) was > 100 µM (inactive), the GI50 (DU-145) was > 100 µM (inactive) and the GI50 (RPMI-8226) was > 100 µM (inactive). The GI50 (NCI-H226) was > 100 µM (inactive), the GI50 (T47D) was > 100 µM (inactive) and the GI50 (LOX IMVI) was > 100 µM (inactive). The GI50 (CCRF-CEM) was > 100 µM (inactive), the GI50 (786-0) was > 100 µM (inactive) and the GI50 (SR) was > 100 µM (inactive). The GI50 (OVCAR-8) was > 100 µM (inactive), the GI50 (MDA-N) was > 100 µM (inactive) and the GI50 (MDA-MB-231) was > 100 µM (inactive). For the same compound, the GI50 (MOLT-4) was > 100 µM (inactive), the GI50 (EKVX) was > 100 µM (inactive) and the GI50 (SN12C) was > 100 µM (inactive). The GI50 (TK-10) was > 100 µM (inactive), the GI50 (Hs-578T) was > 100 µM (inactive) and the GI50 (PC-3) was > 100 µM (inactive). The GI50 (SW-620) was > 100 µM (inactive), the GI50 (NCI-H23) was > 100 µM (inactive) and the GI50 (SNB-75) was > 100 µM (inactive). For the same compound, the GI50 (HCT-15) was over 100 µM, the GI50 (UACC-257) was > 100 µM (inactive) and the GI50 (NCI-H522) was > 100 µM (inactive). For the same compound, the GI50 (SK-MEL-2) was > 100 µM (inactive), the GI50 (SK-MEL-5) was > 100 µM (inactive) and the GI50 (SF-295) was > 100 µM (inactive). The GI50 (CAKI-1) was > 100 µM (inactive), the GI50 (SNB-19) was > 100 µM (inactive) and the GI50 (OVCAR-5) was > 100 µM (inactive). For the same compound, the GI50 (HOP-92) was > 100 µM (inactive), the GI50 (RXF 393) was > 100 µM (inactive) and the GI50 (M14) was > 100 µM (inactive). The GI50 (UO-31) was > 100 µM (inactive), the GI50 (COLO 205) was > 100 µM (inactive) and the GI50 (U-251) was > 100 µM (inactive). The GI50 (HCT-116) was > 100 µM (inactive), the GI50 (MCF7) was > 100 µM (inactive) and the GI50 (SF-268) was > 100 µM (inactive). For the same compound, the GI50 (SK-OV-3) was > 100 µM (inactive), the GI50 (ACHN) was > 100 µM (inactive) and the GI50 (MDA-MB-435) was > 100 µM (inactive). For the same compound, the GI50 (NCI-H460) was > 100 µM (inactive), the GI50 (OVCAR-4) was > 100 µM (inactive) and the GI50 (BT-549) was > 100 µM (inactive). The GI50 (SF-539) was > 100 µM (inactive), the GI50 (UACC-62) was > 100 µM (inactive) and the GI50 (HL-60) was > 100 µM (inactive). The GI50 (IGROV-1) was > 100 µM (inactive) and the GI50 (HT-29) was > 100 µM (inactive).
In the case of `COc1ccc(/C=C2\N=C(N3CCCCC3)NC2=O)cc1`, the GI50 (KM12) is reported as 52.1 µM (inactive), the GI50 (OVCAR-3) is reported as > 100 µM (inactive) and the GI50 (NCI/ADR-RES) is reported as > 100 µM (inactive). For the same compound, the GI50 (A549) was > 100 µM (inactive), the GI50 (DU-145) was > 100 µM (inactive) and the GI50 (RPMI-8226) was > 100 µM (inactive). The GI50 (HOP-62) was > 100 µM (inactive), the GI50 (NCI-H226) was > 100 µM (inactive) and the GI50 (T47D) was 34.5 µM (inactive). For the same compound, the GI50 (LOX IMVI) was 95.1 µM (inactive), the GI50 (CCRF-CEM) was > 100 µM (inactive) and the GI50 (786-0) was > 100 µM (inactive). The GI50 (SR) was 72.1 µM (inactive), the GI50 (OVCAR-8) was > 100 µM (inactive) and the GI50 (MDA-N) was 59 µM (inactive). The GI50 (MDA-MB-231) was > 100 µM (inactive), the GI50 (MOLT-4) was > 100 µM (inactive) and the GI50 (EKVX) was > 100 µM (inactive). For the same compound, the GI50 (SN12C) was > 100 µM (inactive), the GI50 (TK-10) was > 100 µM (inactive) and the GI50 (Hs-578T) was > 100 µM (inactive). For the same compound, the GI50 (PC-3) was > 100 µM (inactive), the GI50 (SW-620) was 96.8 µM (inactive) and the GI50 (NCI-H23) was > 100 µM (inactive). The GI50 (HCC 2998) was > 100 µM (inactive), the GI50 (SNB-75) was 37.2 µM (inactive) and the GI50 (HCT-15) was over 100 µM. For the same compound, the GI50 (UACC-257) was > 100 µM (inactive), the GI50 (NCI-H522) was 57.4 µM (inactive) and the GI50 (SK-MEL-2) was > 100 µM (inactive). For the same compound, the GI50 (SF-295) was > 100 µM (inactive), the GI50 (CAKI-1) was > 100 µM (inactive) and the GI50 (SNB-19) was > 100 µM (inactive). The GI50 (OVCAR-5) was > 100 µM (inactive), the GI50 (HOP-92) was > 100 µM (inactive) and the GI50 (RXF 393) was 64 µM (inactive). The GI50 (M14) was > 100 µM (inactive), the GI50 (Malme-3M) was > 100 µM (inactive) and the GI50 (UO-31) was 48.3 µM (inactive). The GI50 (COLO 205) was > 100 µM (inactive), the GI50 (U-251) was > 100 µM (inactive) and the GI50 (HCT-116) was > 100 µM (inactive). For the same compound, the GI50 (MCF7) was > 100 µM (inactive), the GI50 (SF-268) was > 100 µM (inactive) and the GI50 (SK-OV-3) was > 100 µM (inactive). The GI50 (ACHN) was > 100 µM (inactive), the GI50 (MDA-MB-435) was > 100 µM (inactive) and the GI50 (OVCAR-4) was > 100 µM (inactive). The GI50 (BT-549) was > 100 µM (inactive), the GI50 (SF-539) was 54 µM (inactive) and the GI50 (UACC-62) was > 100 µM (inactive). For the same compound, the GI50 (HL-60) was > 100 µM (inactive), the GI50 (IGROV-1) was > 100 µM (inactive) and the GI50 (SK-MEL-28) was > 100 µM (inactive). For the same compound, the GI50 (HT-29) was > 100 µM (inactive).
